Laboratory results from patent US20060127990A1, “4'-thionucleotide” (GENETICLAB CO., LTD, priority 2002, published 2006).

Key:
T7 RNA polymerase [1] = target: T1, T7 RNA polymerase (Escherichia phage T7, UniProt P00573); assay: Incorporation of 4′-thio UTP into RNA chain with T7 RNA polymerase (26mer transcript); format: biochemical; details: 0.4 mM NTPs (GTP+ATP+CTP+4′-thio UTP), 100 U T7 RNA polymerase, 37° C., 3 hours; compared with lane 4 (native UTP)
Description: Incorporation experiment using T7 RNA polymerase was performed with 4′-thio UTP obtained in Example 9. In this experiment, double-stranded DNA containing T7 promoter sequence was used (FIG. 7).
The reaction was conducted in 20 μL of a solution containing 40 mM Tris-HCl with PH 8.0, 8 mM MgCl2, 2 mM spermidine, 5 mM DTT, 0.4 mM NTPs, 17 nM [γ-^32P]GTP, 2.0 μM template DNA and 100 U T7 RNA polymerase. NTPs were (1) GTP, (2) GTP+ATP, (3) GTP+ATP+CTP, (4) GTP+ATP+CTP+UTP, and (5) GTP+ATP+CTP+4′-thio UTP, respectively. The reaction solution was incubated at 37° C. for 3 hours, and the reaction was stopped. Subsequently, electrophoresis was performed with 20% modified polyacrylamide gel (30×40×0.05 cm, 1800 V, 1 hour, 1×TEB), and analysed by autoradiography.
In lane 1, bands corresponding to 2mer and 3mer of G and a rudder were observed. In lane 2, an expected band with chain elongation stopped at 6mer was observed, and a minor band elongated by one residue was observed. In lane 3, an expected band with chain elongation stopped at 9mer was observed, and a minor band elongated by one residue was observed. In lane 4, a band of 26mer full-length product was observed.

T7 RNA polymerase [2] = target: T1, T7 RNA polymerase; assay: Incorporation of 4′-thio UTP and 4′-thio CTP into RNA chain with T7 RNA polymerase (30mer transcript); format: biochemical; details: 0.4 mM NTPs, replacing the native NTP, 47mer double-stranded DNA template, 37° C., 3 hours
Description: Incorporation experiment using T7 RNA polymerase was performed with 4′-thio UTP and 4′-thio CTP. In this experiment, 47mer double-stranded DNA containing T7 promoter sequence was used (FIG. 9).
The reaction was conducted in 20 μL of a solution containing 40 mM Tris-HCl with pH 8.0, 8 mM MgCl2, 2 mM spermidine, 5 mM DTT, 0.4 mM NTPS, 17 nM [γ-^32P]GTP, 2.0 μM template DNA and 100 U T7 RNA polymerase. NTPs were (1) ATP, GTP, CTP and UTP, (2) using 4′-thio UTP instead of UTP, 3) using 4′-thio CTP instead of CTP, and 4) UTP and CTP were replaced with 4′-thio UTP and 4′-thio CTP. The reaction solution was incubated at 37° C. for 3 hours, and the reaction was stopped. Subsequently, electrophoresis was performed with 20% modified polyacrylamide gel (30×40×0.05 cm, 1800 V, 1 hour, 1×TEB), and analysed by autoradiography.
A relative transcription efficiency is shown in FIG. 10 with a transcription efficiency of native NTPs being defined as 100.

T1 sequence (P00573 whole entry): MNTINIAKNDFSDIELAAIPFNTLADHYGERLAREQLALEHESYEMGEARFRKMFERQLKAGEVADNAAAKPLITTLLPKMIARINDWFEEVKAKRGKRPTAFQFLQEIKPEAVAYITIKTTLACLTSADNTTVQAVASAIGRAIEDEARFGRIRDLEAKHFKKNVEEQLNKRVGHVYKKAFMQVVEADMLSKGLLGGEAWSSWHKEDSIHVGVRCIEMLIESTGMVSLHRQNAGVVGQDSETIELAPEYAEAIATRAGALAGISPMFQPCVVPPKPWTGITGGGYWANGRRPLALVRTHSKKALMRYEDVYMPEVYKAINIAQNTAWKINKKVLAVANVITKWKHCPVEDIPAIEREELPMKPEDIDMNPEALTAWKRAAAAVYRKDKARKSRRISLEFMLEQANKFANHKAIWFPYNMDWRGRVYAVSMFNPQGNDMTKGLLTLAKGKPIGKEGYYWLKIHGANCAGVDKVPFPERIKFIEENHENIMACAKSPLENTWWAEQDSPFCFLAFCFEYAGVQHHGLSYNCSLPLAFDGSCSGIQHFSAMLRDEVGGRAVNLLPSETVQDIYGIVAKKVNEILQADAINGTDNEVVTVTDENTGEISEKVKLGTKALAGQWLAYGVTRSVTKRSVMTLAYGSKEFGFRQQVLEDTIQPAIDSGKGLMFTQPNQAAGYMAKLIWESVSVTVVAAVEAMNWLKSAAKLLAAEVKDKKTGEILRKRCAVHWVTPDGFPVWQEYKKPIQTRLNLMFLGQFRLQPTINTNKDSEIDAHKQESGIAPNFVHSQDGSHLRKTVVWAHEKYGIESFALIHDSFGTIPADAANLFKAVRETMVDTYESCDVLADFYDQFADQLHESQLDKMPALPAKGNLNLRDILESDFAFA

| SMILES | band of full-length product (26mer RNA) when used instead of UTP (T7 RNA polymerase [1]) | recognition by T7 RNA polymerase as substrate and incorporation into RNA chain (30mer full-length product) (T7 RNA polymerase [2]) |
| --- | --- | --- |
| O=c1ccn([C@@H]2S[C@H](COP(=O)(O)OP(=O)(O)OP(=O)(O)O)[C@@H](O)[C@H]2O)c(=O)[nH]1 [4′-thio UTP, 4′-Thiouridine 5′-triphosphate] | approximately the same amount as in lane 4 | incorporated into RNA chain efficiently |
| Nc1ccn([C@@H]2S[C@H](COP(=O)(O)OP(=O)(O)OP(=O)(O)O)[C@@H](O)[C@H]2O)c(=O)n1 [4′-thio CTP, 4′-Thiocytidine 5′-triphosphate] |  | incorporated into RNA chain efficiently |
